Assay results from ChEMBL document CHEMBL4043090 (Bioorg Med Chem, 2017).

Assays:
[1] = Metabolic stability in rat liver microsomes assessed as compound remaining at 4 uM preincubated for 5 mins followed by NADPH addition measured after 60 mins by LC/MS analysis; assay type: ADME, microsome; conditions: read-out: Stability
[2] = tested on: Human immunodeficiency virus 1; assay type: functional, cell-based; conditions: Human immunodeficiency virus 1, A17, MAGI-CCR5, 48 h
PBMC = experiment: Antiviral activity against HIV-1 Bal infected in human PBMC by MTS assay; assay type: functional, cell-based
[3] = Metabolic stability in rat plasma assessed as compound remaining at 100 uM after 1 hr by LC/MS analysis; assay type: ADME, cell-free; conditions: read-out: Stability
[4] = tested on: Human immunodeficiency virus 1; experiment: microbe, parasite or virus in culture; conditions: Human immunodeficiency virus 1, NL4-3, MAGI-CCR5, 48 h
Description: Antiviral activity against wild type HIV-1 NL4-3 infected in human MAGI-CCR5 cells assessed as reduction in viral infection after 48 hrs by fluorescence based beta-galactosidase reporter gene assay

[5] = tested on: Human immunodeficiency virus 1; experiment: Antiviral activity against HIV-1 Bal infected in human MAGI-CCR5 cells assessed as reduction in viral infection after 48 hrs by fluorescence based beta-galactosidase reporter gene assay; assay type: functional, cell-based; conditions: for IC50 / IC90: Human immunodeficiency virus 1, Bal, MAGI-CCR5, 48 h
[6] = Cytotoxicity against human MAGI-CCR5 cells assessed as reduction in cell viability after 48 hrs by MTS assay; assay type: cell-based; conditions: read-out: TC50
[7] = Therapeutic index, ratio of TC50 for human MAGI-CCR5 cells to IC50 for HIV-1 NL4-3 infected in MAGI-CCR5 cells
[8] = Therapeutic index, ratio of TC50 for human PBMC to IC50 for HIV-1 Bal infected in human PBMC
[9] = Cytotoxicity against human PBMC assessed as reduction in cell viability by MTS assay; assay type: cell-based; conditions: read-out: TC50 (the source's name)
[10] = Therapeutic index, ratio of TC50 for human MAGI-CCR5 cells to IC50 for HIV-1 Bal infected in MAGI-CCR5 cells
[11] = tested on: Human immunodeficiency virus 1; assay type: functional, cell-based; conditions: Human immunodeficiency virus 1, NL4-3, MAGI-CCR5, 48 h
[12] = tested on: Human immunodeficiency virus 1; experiment: Antiviral activity against HIV-1 NL4-3 harboring reverse transcriptase K103N mutant infected in human MAGI-CCR5 cells assessed as reduction in viral infection after 48 hrs by fluorescence based beta-galactosidase reporter gene assay; assay type: functional, cell-based; conditions: Human immunodeficiency virus 1, NL4-3, MAGI-CCR5, 48 h
[13] = tested on: Human immunodeficiency virus 1; experiment: microbe, parasite or virus in culture; conditions: Human immunodeficiency virus 1, NL4-3, MAGI-CCR5, 48 h; remark: listed apart in the source
Description: Antiviral activity against HIV-1 NL4-3 harboring reverse transcriptase E138A mutant infected in human MAGI-CCR5 cells assessed as reduction in viral infection after 48 hrs by fluorescence based beta-galactosidase reporter gene assay

[14] = Therapeutic index, ratio of TC50 for human MAGI-CCR5 cells to IC50 for HIV-1 NL4-3 harboring reverse transcriptase E138A mutant infected in MAGI-CCR5 cells
[15] = Therapeutic index, ratio of TC50 for human MAGI-CCR5 cells to IC50 for HIV-1 NL4-3 harboring reverse transcriptase K103N mutant infected in MAGI-CCR5 cells
[16] = tested on: Human immunodeficiency virus 1; experiment: (§1) Inhibition of HIV1 NL4-3 reverse transcriptase assessed as reduction in [3H]dTTP incorporation using poly(rA)/oligo(dT) as template/primer after 1 hr by microbeta scintillation counting analysis
[17] = as §1; set-up: species or system Human immunodeficiency virus 1

SMILES | remaining at 1 h, 4 µM [1] [%] | IC50 [2] [µM] | IC90 [2] [µM] | IC50 (PBMC) [µM] | IC90 (PBMC) [µM] | remaining at 1 h, 100 µM [3] [%] | IC50 [4] [µM] | IC90 [4] [µM] | Activity [5] | IC50 [5] [µM] | IC90 [5] [µM] | CC50 at 48 h [6] [µM] | TI [7] | TI [8] | CC50 [9] [µM] | TI [10] | other results
COc1ccc(C2NC(=O)NC(C)=C2c2nc(-c3ccc(C#N)cc3)cs2)cn1 (configuration not stated) | 69.4 | > 100 | > 100 | 0.12 | 0.43 | 100 | < 0.32 | 1.9 | Dose-dependent effect | 0.1 | 0.58 | > 10 | >313 | 833 | > 100 | 100 | 
COc1ccc(C2NC(=O)NC(C)=C2c2nc(-c3ccc(C#N)cc3)cs2)cc1 (configuration not stated) | 63.1 | 3.4 | 24 | 0.12 | 0.3 | 96 | 0.05 | 0.62 | Dose-dependent effect | 0.08 | 0.37 | 7 | 110 | 638 | 76.6 | 88 | 
CC1=C(c2nc(-c3ccc(C#N)cc3)cs2)C(c2cccc(O)c2)NC(=O)N1 (configuration not stated) | 52.4 |  |  | 0.19 | 0.66 | 88.5 |  |  | Dose-dependent effect | 0.44 | 2.1 | 98 |  | 442 | 84 | 223 | 
CC1=C(c2nc(-c3ccc(C#N)cc3)cs2)C(c2ccc(Br)nc2)NC(=O)N1 (configuration not stated) | 67.6 | > 100 | > 100 | 0.21 | 0.57 | 98.3 | 0.5 | 3.2 | Dose-dependent effect | 0.35 | 1.4 | > 100 | >200 | 476 | > 100 | 286 | 
Cc1cn([C@H]2C[C@H](N=[N+]=[N-])[C@@H](CO)O2)c(=O)[nH]c1=O [ZIDOVUDINE] |  |  |  |  |  |  |  | 0.35 |  |  |  | > 1 |  |  |  |  | IC50 [11]: 0.009 µM; IC90 [11]: 0.1 µM; IC50 [12]: 0.01 µM; IC90 [12]: 0.21 µM; IC90 [13]: > 1 µM
CC1=C(c2nc(-c3ccc(C#N)cc3)cs2)C(c2cc3ccccc3n2C)NC(=O)N1 (configuration not stated) | 62.9 | > 100 |  | 1.1 | 3.2 | 95.6 | 0.52 to 0.9 | 5 to 8.39 | Dose-dependent effect | 0.7 | 3.7 | > 100 | >=111 - 192 | 91 | > 100 | 143 | IC50 [11]: > 100 µM; IC90 [11]: > 100 µM; IC50 [12]: 3.84 µM; IC90 [12]: > 100 µM; IC50 [13]: 43.5 µM; IC90 [13]: > 100 µM; TI [14]: >2.3; TI [15]: >26.04
CC1=C(c2nc(-c3ccc(C#N)cc3)cs2)C(c2ccc(F)nc2)NC(=O)N1 (configuration not stated) | 49.4 | > 100 | > 100 | 0.59 | 2 | 100 | 1.1 | 7.6 | Dose-dependent effect | 1.1 | 5.4 | > 100 | >91 | 170 | > 100 | 91 | 
CC1=C(c2nc(-c3ccc(C#N)cc3)cs2)[C@@H](c2cccc(O)c2)NC(=O)N1 |  |  |  | 0.11 | 0.42 |  |  |  |  |  |  |  |  | >909 | > 100 |  | inhibition [16]: Dose-dependent effect; IC50 [17]: 0.6 µM
CC1=C(c2nc(-c3ccc(C#N)cc3)cs2)C(c2ccc(Cl)nc2)NC(=O)N1 (configuration not stated) | 63.4 |  |  | 0.38 | 0.94 | 91.7 |  |  | Dose-dependent effect | 0.48 | 2.4 | > 100 |  | 263 | > 100 | 208 | 
CC1=C(c2nc(-c3ccc(C#N)cc3)cs2)C(c2ccc(C(F)(F)F)nc2)NC(=O)N1 (configuration not stated) |  | > 100 | > 100 | 1.2 | 4.6 |  | 0.86 | 7.7 | Dose-dependent effect | 1.1 | 7.3 | > 100 | >116 | 83 | > 100 | 91 | 
CC1=C(c2nc(-c3ccc(C#N)cc3)cs2)C(c2ccc(O)cc2)NC(=O)N1 (configuration not stated) | 100 | 28 | 95 | 0.04 | 0.12 | 100 | 0.06 | 0.62 | Dose-dependent effect | 0.04 | 0.52 | > 10 | 765 | 2500 | > 100 | 250 | 
Cc1ccnc2c1NC(=O)c1cccnc1N2C1CC1 [NEVIRAPINE] |  | > 10 |  | 0.04 to 0.06 | 0.18 to 0.19 |  | 0.04 to 0.07 | 0.54 to 0.6 | Dose-dependent effect | 0.04 | 0.03 to 0.42 |  |  |  |  |  | IC50 [11]: > 10 µM; IC90 [11]: > 10 µM; IC50 [12]: 0.03 µM; IC90 [12]: 0.35 µM; IC90 [13]: > 10 µM
CC1=C(c2nc(-c3ccc(C#N)cc3)cs2)C(c2cccc(OC(F)(F)F)c2)NC(=O)N1 (configuration not stated) |  |  |  | 41.2 | > 100 |  |  |  | Dose-dependent effect | 2.4 | 69.8 | > 100 |  | 2.4 | > 100 | 42 | 
CC1=C(c2nc(-c3ccc(C#N)cc3)cs2)[C@H](c2cccc(O)c2)NC(=O)N1 |  |  |  | 22 | 77 |  |  |  |  |  |  |  |  | >4.5 |  |  | IC50 [17]: > 10 µM
CC1=C(c2nc(-c3ccc(F)cc3)cs2)C(c2cccc(O)c2)NC(=O)N1 (configuration not stated) |  |  |  | 8 | 18 |  |  |  | Dose-dependent effect | 3.8 | 50 | 60 |  | 7.3 | 58 | 16 | 
